Converted amounts (≈) assume the structure as drawn.
Key:
[1] = test system: Botrtyis cinerea (Bc); assay: Growth inhibition assay of fungal pathogens, Bc; assay type: cell-based; conditions: 48 hours; read-out: Concentration at 90% Inhibition, Bc
Procedure, shortened: (§1)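 Spores in 17% V8 liquid medium were exposed to compound at final 50, 10 and 2 ppm or 2, 0.4 and 0.08 ppm with 2% DMSO. After 48 h, OD600 (blank-subtracted) and visual ratings were compared with the 2% DMSO control to give percent growth inhibition.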

[2] = test system: Blumeria graminis f sp. hordei; assay: Foliar protection test, barley powdery mildew control; assay type: in vivo, Blumeria graminis f sp. hordei on Hordeum vulgare cv. Perry; conditions: 168 h, compound concentration 50 ppm, foliar spray, evaluated 7 days after inoculation, read-out: Barley Powdery Mildew Control at 50 ppm
Procedure, shortened: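 Barley cv. Perry at first true leaf (6 days) sprayed to wetness on both leaf sides with compound in 5% acetone/0.005% Tween 80, typically at 200, 100, 50, 10 or 2 ppm. Inoculated 24 h later by shaking spores from colonized plants; kept at 20-22 °C, 70% RH. Mildew colonization scored 7 days later as percent control.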

[3] = test system: C. albicans ATCC 90028; assay: Anti-Fungal Activity Assay (broth microtiter MIC), C. albicans; assay type: cell-based, Candida albicans; conditions: Candida albicans, ATCC90028, 48 h, 3 replicates; MIC recorded at 48 h; read-out: MIC C. albicans ATCC 90028
Procedure, shortened: (§2)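 MIC taken as visual growth inhibition versus the growth control, mostly at 48 h (soraphen also at 24 h). Following CLSI M27-A3, colonies grown overnight at 35° C on Sabouraud dextrose agar were suspended in RPMI 1640+MOPS; test agents came from 1 mg/mL DMSO stocks.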

[4] = compound concentration 10 ppm, foliar spray, evaluated 7 days after inoculation
[5] = test system: Diplodia maydis (Dm); assay: Growth inhibition assay of fungal pathogens, Dm; assay type: cell-based; conditions: Stenocarpella maydis; 48 hours; read-out: Concentration at 90% Inhibition, Dm
Procedure, shortened: as §1

[6] = test system: C. krusei ATCC 6258; assay: Anti-Fungal Activity Assay (broth microtiter MIC), C. krusei; assay type: cell-based, Candida krusei; conditions: Pichia kudriavzevii, ATCC6258, 48 h, 3 replicates; MIC recorded at 48 h; read-out: MIC C. krusei ATCC 6258
Procedure, shortened: as §2

[7] = test system: Fusarium virguliforme (Fv); assay: Growth inhibition assay of fungal pathogens, Fv; assay type: cell-based; conditions: 48 hours, read-out: Concentration at 90% Inhibition, Fv
Procedure, shortened: as §1

[8] = test system: Rhizoctonia solani (Rs); assay: Growth inhibition assay of fungal pathogens, Rs; assay type: cell-based; conditions: 48 hours, read-out: Concentration at 90% Inhibition, Rs
[9] = target: Fungal ACC2 (UniProt Q00955); conditions: read-out: Fungal ACC2 (IC50, in vitro ACC2 inhibition)
Sequence of Fungal ACC2 (Q00955 whole entry): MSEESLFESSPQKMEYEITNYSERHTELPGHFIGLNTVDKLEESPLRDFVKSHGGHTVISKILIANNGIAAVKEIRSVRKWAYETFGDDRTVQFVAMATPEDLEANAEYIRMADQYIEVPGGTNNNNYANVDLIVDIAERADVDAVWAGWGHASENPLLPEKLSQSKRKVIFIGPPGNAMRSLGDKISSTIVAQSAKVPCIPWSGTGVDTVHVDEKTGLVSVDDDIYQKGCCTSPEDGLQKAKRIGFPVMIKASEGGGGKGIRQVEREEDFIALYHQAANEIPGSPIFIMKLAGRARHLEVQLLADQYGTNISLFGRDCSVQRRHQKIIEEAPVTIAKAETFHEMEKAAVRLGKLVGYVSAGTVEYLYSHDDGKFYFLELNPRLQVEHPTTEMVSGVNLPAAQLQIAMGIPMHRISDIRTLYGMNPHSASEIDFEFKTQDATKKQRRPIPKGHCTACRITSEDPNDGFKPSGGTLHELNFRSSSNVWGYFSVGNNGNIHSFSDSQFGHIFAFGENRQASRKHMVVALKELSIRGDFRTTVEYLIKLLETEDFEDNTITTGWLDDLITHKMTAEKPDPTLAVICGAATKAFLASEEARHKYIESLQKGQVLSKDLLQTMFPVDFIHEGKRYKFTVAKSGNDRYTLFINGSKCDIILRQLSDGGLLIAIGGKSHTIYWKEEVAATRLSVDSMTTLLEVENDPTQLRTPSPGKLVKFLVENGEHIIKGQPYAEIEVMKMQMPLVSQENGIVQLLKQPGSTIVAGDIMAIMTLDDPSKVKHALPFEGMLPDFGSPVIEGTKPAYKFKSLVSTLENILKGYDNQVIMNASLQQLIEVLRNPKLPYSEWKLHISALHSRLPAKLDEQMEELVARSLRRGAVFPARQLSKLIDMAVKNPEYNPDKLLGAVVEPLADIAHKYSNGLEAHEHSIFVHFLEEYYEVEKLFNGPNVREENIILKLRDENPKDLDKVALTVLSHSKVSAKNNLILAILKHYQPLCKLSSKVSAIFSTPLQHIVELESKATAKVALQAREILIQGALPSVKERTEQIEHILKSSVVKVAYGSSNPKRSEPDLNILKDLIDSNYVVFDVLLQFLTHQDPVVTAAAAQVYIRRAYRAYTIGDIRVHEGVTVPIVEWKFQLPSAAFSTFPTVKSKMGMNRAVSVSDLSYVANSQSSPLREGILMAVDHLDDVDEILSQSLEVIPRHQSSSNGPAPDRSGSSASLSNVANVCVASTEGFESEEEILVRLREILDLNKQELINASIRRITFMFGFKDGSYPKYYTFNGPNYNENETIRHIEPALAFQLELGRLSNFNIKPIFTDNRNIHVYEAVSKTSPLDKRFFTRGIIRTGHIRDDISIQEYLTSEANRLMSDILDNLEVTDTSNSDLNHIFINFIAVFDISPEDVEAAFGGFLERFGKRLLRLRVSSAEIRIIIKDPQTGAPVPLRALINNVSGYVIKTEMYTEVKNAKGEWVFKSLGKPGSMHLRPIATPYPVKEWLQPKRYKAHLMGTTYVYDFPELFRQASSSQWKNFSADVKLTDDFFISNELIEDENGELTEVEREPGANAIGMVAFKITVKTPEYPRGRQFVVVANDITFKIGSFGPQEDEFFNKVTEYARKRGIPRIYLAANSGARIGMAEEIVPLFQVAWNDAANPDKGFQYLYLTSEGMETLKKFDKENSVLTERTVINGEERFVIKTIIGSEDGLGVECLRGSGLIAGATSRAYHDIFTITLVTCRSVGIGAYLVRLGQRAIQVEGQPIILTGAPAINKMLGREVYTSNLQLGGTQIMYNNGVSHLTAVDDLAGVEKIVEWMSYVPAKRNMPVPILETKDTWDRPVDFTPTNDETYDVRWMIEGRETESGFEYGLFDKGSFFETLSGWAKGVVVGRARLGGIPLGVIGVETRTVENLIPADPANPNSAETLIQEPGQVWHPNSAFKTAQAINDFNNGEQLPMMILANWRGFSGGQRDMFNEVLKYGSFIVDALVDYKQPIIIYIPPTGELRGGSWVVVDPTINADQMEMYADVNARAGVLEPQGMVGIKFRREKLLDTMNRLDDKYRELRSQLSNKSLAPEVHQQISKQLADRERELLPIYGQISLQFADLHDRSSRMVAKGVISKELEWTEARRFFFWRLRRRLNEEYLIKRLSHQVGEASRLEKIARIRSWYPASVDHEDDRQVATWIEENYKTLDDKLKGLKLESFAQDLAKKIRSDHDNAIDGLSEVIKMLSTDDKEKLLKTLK

[10] = test system: Fusarium moniliforme (Fm); assay: Growth inhibition assay of fungal pathogens, Fm; assay type: cell-based; conditions: Fusarium verticillioides; 48 hours; read-out: Concentration at 90% Inhibition, Fm
Procedure, shortened: as §1

[11] = test system: Septoria tritici (St); assay: Growth inhibition assay of fungal pathogens, St; assay type: cell-based; conditions: Zymoseptoria tritici; 48 hours; read-out: Concentration at 90% Inhibition, St
Procedure, shortened: as §1

[12] = test system: Phytophthora capsici (Pc); assay: Growth inhibition assay of fungal pathogens, Pc; assay type: cell-based; conditions: 48 hours, read-out: Concentration at 90% Inhibition, Pc
Procedure, shortened: as §1

[13] = test system: C. parapsilosis ATCC 22019; assay: Anti-Fungal Activity Assay (broth microtiter MIC), C. parapsilosis; assay type: cell-based, Candida parapsilosis; conditions: Lodderomyces parapsilosis, ATCC22019, 48 h, 3 replicates; MIC recorded at 48 h; read-out: MIC C. parapsilosis ATCC 22019
Procedure, shortened: as §2

[14] = test system: Collectotrichum graminicola (Cg); assay: Growth inhibition assay of fungal pathogens, Cg; assay type: cell-based; conditions: 48 hours; read-out: Concentration at 90% Inhibition, Cg
Procedure, shortened: as §1

[15] = target: Human ACC2 (Homo sapiens, UniProt O00763); assay: In vitro ACC2 inhibition assay (ADP-Glo), human ACC2; assay type: biochemical; conditions: 5 nM ACC2, 20 μM ATP, 20 μM acetyl-CoA
Sequence of Human ACC2 (O00763 whole entry): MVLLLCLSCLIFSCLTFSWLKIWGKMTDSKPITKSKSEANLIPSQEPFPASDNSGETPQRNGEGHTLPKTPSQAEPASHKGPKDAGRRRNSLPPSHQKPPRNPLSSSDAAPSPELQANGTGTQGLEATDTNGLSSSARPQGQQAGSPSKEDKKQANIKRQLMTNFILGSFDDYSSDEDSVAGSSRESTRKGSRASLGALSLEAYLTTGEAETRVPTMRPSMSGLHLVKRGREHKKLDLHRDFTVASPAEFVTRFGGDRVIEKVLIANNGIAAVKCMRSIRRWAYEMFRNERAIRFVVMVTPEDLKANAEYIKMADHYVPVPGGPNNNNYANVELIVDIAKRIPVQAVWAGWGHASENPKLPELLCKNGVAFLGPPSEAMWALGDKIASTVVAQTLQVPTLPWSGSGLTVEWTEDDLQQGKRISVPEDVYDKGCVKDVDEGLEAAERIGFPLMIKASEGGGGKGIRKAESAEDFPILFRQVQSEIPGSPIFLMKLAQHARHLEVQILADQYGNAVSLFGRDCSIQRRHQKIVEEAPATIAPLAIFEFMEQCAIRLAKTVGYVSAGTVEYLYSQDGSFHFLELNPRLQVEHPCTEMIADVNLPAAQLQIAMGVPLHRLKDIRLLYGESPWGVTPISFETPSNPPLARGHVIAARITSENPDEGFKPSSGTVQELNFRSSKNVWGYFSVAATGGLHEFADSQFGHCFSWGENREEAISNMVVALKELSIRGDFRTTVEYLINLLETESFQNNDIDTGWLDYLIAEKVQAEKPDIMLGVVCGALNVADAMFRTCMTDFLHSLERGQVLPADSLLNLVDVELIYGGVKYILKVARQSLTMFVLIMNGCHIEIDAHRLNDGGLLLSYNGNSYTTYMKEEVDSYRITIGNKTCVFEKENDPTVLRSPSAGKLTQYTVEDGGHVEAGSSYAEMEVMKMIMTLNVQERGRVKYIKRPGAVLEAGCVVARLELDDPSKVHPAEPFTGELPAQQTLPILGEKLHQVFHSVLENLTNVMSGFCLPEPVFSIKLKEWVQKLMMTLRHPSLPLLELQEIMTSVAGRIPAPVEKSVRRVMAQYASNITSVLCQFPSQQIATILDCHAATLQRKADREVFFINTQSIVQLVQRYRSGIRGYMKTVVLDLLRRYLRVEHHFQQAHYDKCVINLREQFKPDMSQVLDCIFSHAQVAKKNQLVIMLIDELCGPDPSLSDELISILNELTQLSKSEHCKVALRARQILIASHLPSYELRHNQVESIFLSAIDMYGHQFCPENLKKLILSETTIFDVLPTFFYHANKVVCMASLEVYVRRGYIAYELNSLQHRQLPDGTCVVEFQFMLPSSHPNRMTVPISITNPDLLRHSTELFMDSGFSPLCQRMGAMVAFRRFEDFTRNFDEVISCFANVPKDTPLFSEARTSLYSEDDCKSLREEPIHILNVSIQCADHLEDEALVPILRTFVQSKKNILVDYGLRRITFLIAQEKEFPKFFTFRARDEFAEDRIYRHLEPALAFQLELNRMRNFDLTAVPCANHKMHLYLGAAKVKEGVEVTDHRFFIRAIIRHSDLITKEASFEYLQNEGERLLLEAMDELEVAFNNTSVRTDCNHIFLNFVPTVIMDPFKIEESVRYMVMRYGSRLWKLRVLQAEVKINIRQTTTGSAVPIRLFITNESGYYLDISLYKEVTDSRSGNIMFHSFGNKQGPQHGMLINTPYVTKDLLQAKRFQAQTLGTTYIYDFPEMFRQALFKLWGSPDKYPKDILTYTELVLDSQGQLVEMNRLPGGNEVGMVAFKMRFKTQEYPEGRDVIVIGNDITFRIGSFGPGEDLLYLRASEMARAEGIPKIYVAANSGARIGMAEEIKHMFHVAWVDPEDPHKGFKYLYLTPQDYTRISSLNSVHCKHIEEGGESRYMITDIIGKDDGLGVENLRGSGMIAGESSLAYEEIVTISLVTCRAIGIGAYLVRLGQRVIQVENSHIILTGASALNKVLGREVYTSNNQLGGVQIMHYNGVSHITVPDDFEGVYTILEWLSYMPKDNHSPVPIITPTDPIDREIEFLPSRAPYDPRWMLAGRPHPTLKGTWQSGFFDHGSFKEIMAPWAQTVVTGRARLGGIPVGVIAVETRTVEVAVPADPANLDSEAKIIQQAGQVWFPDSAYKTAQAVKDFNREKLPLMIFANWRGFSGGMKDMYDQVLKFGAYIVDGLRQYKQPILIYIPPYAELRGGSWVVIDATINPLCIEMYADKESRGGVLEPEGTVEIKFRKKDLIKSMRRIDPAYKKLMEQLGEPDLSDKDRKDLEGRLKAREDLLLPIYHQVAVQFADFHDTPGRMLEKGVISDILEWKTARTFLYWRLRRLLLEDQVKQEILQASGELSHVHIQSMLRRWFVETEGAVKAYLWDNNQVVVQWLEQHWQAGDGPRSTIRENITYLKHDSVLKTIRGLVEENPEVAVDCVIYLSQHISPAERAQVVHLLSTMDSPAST

## COCCO[C@@H](Cn1c(=O)n([C@H]2CCCN(C)C2=O)c(=O)c2c(C)c(-n3nccn3)sc21)c1cc(F)ccc1OC [Compound I-31, 1-((R)-2-(5-fluoro-2-methoxyphenyl)-2-(2-methoxy-ethoxy)ethyl)-5-methyl-3-((S)-1-methyl-2-oxopiperidin-3-yl)-6-(2H-1,2,3-triazol-2-yl)thieno[2,3-d]pyrimidine-2,4(1H,3H)-dione]
[1]
  IC90: 10 µg/mL (≈ 17 µM)
[2]
  pest or weed control at 50 ppm: 70 to 84%
[3]
  MIC: 2.1 to 4 µg/mL (≈ 3.58 to 6.82 µM)
[4]
  Barley Powdery Mildew Control at 10 ppm: B (provided a compound having from 50 to 69% control of barley powdery mildew)
[5]
  IC90: > 50 µg/mL
[6]
  MIC: 2.1 to 4 µg/mL (≈ 3.58 to 6.82 µM)
[7]
  IC90: 2 µg/mL (≈ 3.41 µM)
[8]
  IC90: > 50 µg/mL
[9]
  IC50: 0.7 to 2 nM
[10]
  IC90: 2 µg/mL (≈ 3.41 µM)
[11]
  IC90: > 50 µg/mL
[12]
  IC90: > 50 µg/mL
[13]
  MIC: 2.1 to 4 µg/mL (≈ 3.58 to 6.82 µM)
[14]
  IC90: > 50 µg/mL
[15]
  IC50: 10 to 100 nM

## COCCO[C@@H](Cn1c(=O)n([C@H]2CCCNC2=O)c(=O)c2c(C)c(-n3cccn3)sc21)c1cc(F)ccc1OC [Compound I-45, 1-((R)-2-(5-fluoro-2-methoxyphenyl)-2-(2-methoxy-ethoxy)ethyl)-5-methyl-3-((S)-2-oxopiperidin-3-yl)-6-(I H-pyrazol-1-yl)thieno[2,3-d]pyrimidine-2,4(1H,3H)-dione]
[1]
  IC90: > 50 µg/mL
[2]
  pest or weed control at 50 ppm: 50 to 69%
[3]
  MIC: 2.1 to 4 µg/mL (≈ 3.67 to 7 µM)
[4]
  Barley Powdery Mildew Control at 10 ppm: D (provided a compound having <25% control of barley powdery mildew)
[5]
  IC90: > 50 µg/mL
[6]
  MIC: 2.1 to 4 µg/mL (≈ 3.67 to 7 µM)
[7]
  IC90: > 50 µg/mL
[8]
  IC90: > 50 µg/mL
[9]
  IC50: 2 to 10 nM
[10]
  IC90: > 50 µg/mL
[11]
  IC90: > 50 µg/mL
[12]
  IC90: > 50 µg/mL
[13]
  MIC: 2.1 to 4 µg/mL (≈ 3.67 to 7 µM)
[14]
  IC90: > 50 µg/mL
[15]
  IC50: 10 to 100 nM

## COc1ccc(F)cc1[C@H](Cn1c(=O)n([C@@H]2CCCNC2=O)c(=O)c2c(C)c(-n3nccn3)sc21)OCCO [Compound I-71, 1-((R)-2-(5-fluoro-2-methoxyphenyl)-2-(2-hydroxy-ethoxy)ethyl)-5-methyl-3-((R)-2-oxopiperidin-3-yl)-6-(2H-1,2,3-triazol-2-yl)thieno[2,3-d]pyrimidine-2,4(1H,3H)-dione]
[1]
  IC90: 2 µg/mL (≈ 3.58 µM)
[2]
  pest or weed control at 50 ppm: 50 to 69%
[3]
  MIC: 2.1 to 4 µg/mL (≈ 3.76 to 7.16 µM)
[4]
  Barley Powdery Mildew Control at 10 ppm: D (provided a compound having <25% control of barley powdery mildew)
[5]
  IC90: > 50 µg/mL
[6]
  MIC: 2.1 to 4 µg/mL (≈ 3.76 to 7.16 µM)
[7]
  IC90: 2 µg/mL (≈ 3.58 µM)
[8]
  IC90: 2 µg/mL (≈ 3.58 µM)
[9]
  IC50: 0.7 to 2 nM
[10]
  IC90: 2 µg/mL (≈ 3.58 µM)
[11]
  IC90: > 50 µg/mL
[12]
  IC90: > 50 µg/mL
[13]
  MIC: 2.1 to 4 µg/mL (≈ 3.76 to 7.16 µM)
[14]
  IC90: 10 µg/mL (≈ 17.9 µM)
[15]
  IC50: 2 to 10 nM

## COCCO[C@@H](Cn1c(=O)n([C@@H]2CCCN(C)C2=O)c(=O)c2c(C)c(-n3nccn3)sc21)c1cc(F)ccc1OC [Compound I-32, 1-((R)-2-(5-fluoro-2-methoxyphenyl)-2-(2-methoxy-ethoxy)ethyl)-5-methyl-3-((R)-1-methyl-2-oxopiperidin-3-yl)-6-(2H-1,2,3-triazol-2-yl)thieno[2,3-d]pyrimidine-2,4(1H,3H)-dione]
[1]
  IC90: 10 µg/mL (≈ 17 µM)
[2]
  pest or weed control at 50 ppm: 70 to 84%
[3]
  MIC: 2.1 to 4 µg/mL (≈ 3.58 to 6.82 µM)
[4]
  Barley Powdery Mildew Control at 10 ppm: C (provided a compound having from 25 to 49% control of barley powdery mildew)
[5]
  IC90: > 50 µg/mL
[6]
  MIC: 2.1 to 4 µg/mL (≈ 3.58 to 6.82 µM)
[7]
  IC90: > 50 µg/mL
[8]
  IC90: > 50 µg/mL
[9]
  IC50: 0.7 to 2 nM
[10]
  IC90: 2 µg/mL (≈ 3.41 µM)
[11]
  IC90: > 50 µg/mL
[12]
  IC90: > 50 µg/mL
[13]
  MIC: 2.1 to 4 µg/mL (≈ 3.58 to 6.82 µM)
[14]
  IC90: > 50 µg/mL
[15]
  IC50: 10 to 100 nM

Reference: US20190330224A1, “ACC INHIBITORS AND USES THEREOF” (Gilead Apollo, LLC, priority 2015, published 2019)
